Source: patent US10221169B2, “Substituted aminothiazoles for the treatment of tuberculosis” (THE BROAD INSTITUTE, INC., priority 2013, dated 2019)
In brackets after ≈: the same amount, converted by molar mass.

How the values were obtained:
Replicating Mtb = experiment: microbe, parasite or virus in culture; type: cell-based, M. tuberculosis H37Rv; details: log-phase Mtb; for IC90: Mycobacterium tuberculosis, 72 h, read-out: Replicating Mtb Log MIC IC90 (uM, GFP) (converted)
[1] = test system: Non-replicating Mtb Carbon-starved; experiment: Non-replicating carbon-starved Mtb IC99 by luciferase; type: cell-based, M. tuberculosis H37Rv; details: Mycobacterium tuberculosis, luciferase readout, 99% killing
M. tuberculosis = experiment: MIC of control anti-tuberculosis antibiotics; type: cell-based; details: Mycobacterium tuberculosis, MIC used as reference for 10× MIC

Compound | IC90 (Replicating Mtb) [µM] | MIC [1] [µM] | Replicating Mtb Log MIC IC90 (uM, GFP) (Replicating Mtb) | MIC (M. tuberculosis) [µg/mL]
Cc1cccnc1Nc1nc(-c2ccccn2)cs1 [Compound 1, N-(3-methylpyridin-2-yl)-4-(pyridin-2-yl)thiazol-2-amine] | 0.5 | 1 (≈ 0.268 µg/mL) | – | –
Clc1ccc(Nc2nc(-c3ccccn3)cs2)nc1 [Compound 2] | 2 | 2 (≈ 0.578 µg/mL) | – | –
COc1ccc(Nc2nc(-c3ccccn3)cs2)c(OC)c1 [Compound 3] | 8 | – | – | –
FC(F)(F)c1ccccc1Nc1nc(-c2ccccn2)cs1 [Compound 4] | 62 | – | – | –
COc1ccc(CCNc2nc(-c3ccccn3)cs2)cc1OC [Compound 5] | 62 | 8 (≈ 2.73 µg/mL) | – | –
CN(C)c1ccc(Nc2nc(-c3ccccn3)cs2)nc1 [Compound 6] | 125 | 8 (≈ 2.38 µg/mL) | – | –
Cc1ccccc1Nc1nc(-c2ccccn2)cs1 [Compound 9] | 62 | 8 (≈ 2.14 µg/mL) | – | –
Cc1cccnc1Nc1nc(-c2cccnc2)cs1 [Compound 10] | 125 | – | – | –
Cc1cccnc1Nc1nc(-c2ccncc2)cs1 [Compound 11] | – | – | None detected | –
Cc1ccc(-c2csc(Nc3ncccc3C)n2)cc1 [Compound 12] | 125 | – | – | –
c1ccc(Nc2nc(-c3ccccn3)cs2)nc1 [Compound 13] | 8 | – | – | –
Cc1ccnc(Nc2nc(-c3ccccn3)cs2)c1 [Compound 14] | 16 | – | – | –
C/C(=N\Nc1nc(C)c(C)s1)c1ccc(Br)cc1 [Compound 15] | 62 | 16 (≈ 5.19 µg/mL) | – | –
Cc1cccnc1Nc1nc(-c2ccccn2)c(Br)s1 [Compound 17, 5-bromo-N-(3-methylpyridin-2-yl)-4-(pyridin-2-yl)thiazol-2-amine] | < 1 | < 16 | – | –
CCOC(=O)c1sc(Nc2ncccc2C)nc1-c1ccccn1 [Compound 18, ethyl 2-((3-methylpyridin-2-yl)amino)-4-(pyridin-2-yl)thiazole-5-carboxylate] | 4 | 8 (≈ 2.72 µg/mL) | – | –
Cc1cccnc1Nc1nc(-c2ccccn2)c(CN2CCOCC2)s1 [Compound 19, N-(3-methylpyridin-2-yl)-5-(morpholinomethyl)-4-(pyridin-2-yl)thiazol-2-amine] | 16 | 32 (≈ 11.8 µg/mL) | – | –
CC(C)(C)OC(=O)COc1cccnc1Nc1nc(-c2ccccn2)cs1 [Compound 20, tert-butyl 2-((2-((4-(pyridin-2-yl)thiazol-2-yl)amino)pyridin-3-yl)oxy)acetate] | – | 4 (≈ 1.54 µg/mL) | – | –
O=C(O)COc1cccnc1Nc1nc(-c2ccccn2)cs1 [Compound 21, 2-((2-((4-(pyridin-2-yl)thiazol-2-yl)amtno)pyridin-3-yl)oxy)acetic acid] | 125 | > 125 | – | –
CO[C@H]1/C=C/O[C@@]2(C)Oc3c(C)c(O)c4c(O)c(c(/C=N/N5CCN(C)CC5)c(O)c4c3C2=O)NC(=O)/C(C)=C\C=C\[C@H](C)[C@H](O)[C@@H](C)[C@@H](O)[C@@H](C)[C@H](OC(C)=O)[C@@H]1C [rifampin] | – | – | – | 0.01
